Measurements: PMC7594054, “Design, Synthesis and In Vitro Experimental Validation of Novel TRPV4 Antagonists Inspired by Labdane Diterpenes” (Marine Drugs, 2020)
Entries after “also recorded” stand apart in the source; their conditions may differ. Read-outs that look alike come from different tables or passages of the source.

Columns and labels:
rTRPV4 = molecular target: T1, rTRPV4 (Rattus norvegicus, UniProt Q9ERZ8); experiment: TRPV4 calcium influx assay (Fluo-4) in HEK-293 cells overexpressing rat recombinant TRPV4; format: cell-based; conditions: for IC50: against the effect of GSK1016790A (10 nM) after a 5-min pre-incubation, read-out: IC50 inh. TRPV4; for Efficacy %: as percent of the effect of ionomycin (4 µM), HEK-293 cells overexpressing rTRPV4, means ± SEM, n >= 3
T1 construct: expressed in transfected cells; host or cells: HEK-293
From the text: The interaction properties of all homodrimane-derived compounds 1–16, 18–19, and 22–25 with either TRPV type-4 or type-1 were studied in human embryonic kidney (HEK)-293 cells overexpressing either the rat recombinant type-4 (rTRPV4), which shares with the human orthologue ~95% of sequence identity, and the human recombinant type-1 (hTRPV1) channel, evaluating the changes in intracellular calcium levels. […] Cell fluorescence before and after the addition of various concentrations of test compounds was measured normalizing the effects against the response to ionomycin (4 μM). […] Dose-response curve fitting (sigmoidal dose-response variable slope) and parameter estimation were performed with Graph-Pad Prism8® (GraphPad Software Inc., San Diego, CA, USA). All determinations were performed at least in triplicate.

hTRPV1 = molecular target: T2, hTRPV1 (Homo sapiens, UniProt Q8NER1); experiment: TRPV1 calcium influx assay (Fluo-4) in HEK-293 cells overexpressing human recombinant TRPV1; format: cell-based; conditions: for Efficacy %: as percent of the effect of ionomycin (4 µM), HEK-293 cells overexpressing hTRPV1, means ± SEM, N >= 3; for IC50: read-out: IC50 inh TRPV1; for EC50: activation, NA = not active (efficacy lower than 10%), read-out: Potency EC50
T2 construct: expressed in transfected cells; host or cells: HEK-293

[1] = activation, half-maximal increase in [Ca2+]i, NA = not active (efficacy lower than 10%), read-out: Potency EC50

T1 sequence (Q9ERZ8 whole entry): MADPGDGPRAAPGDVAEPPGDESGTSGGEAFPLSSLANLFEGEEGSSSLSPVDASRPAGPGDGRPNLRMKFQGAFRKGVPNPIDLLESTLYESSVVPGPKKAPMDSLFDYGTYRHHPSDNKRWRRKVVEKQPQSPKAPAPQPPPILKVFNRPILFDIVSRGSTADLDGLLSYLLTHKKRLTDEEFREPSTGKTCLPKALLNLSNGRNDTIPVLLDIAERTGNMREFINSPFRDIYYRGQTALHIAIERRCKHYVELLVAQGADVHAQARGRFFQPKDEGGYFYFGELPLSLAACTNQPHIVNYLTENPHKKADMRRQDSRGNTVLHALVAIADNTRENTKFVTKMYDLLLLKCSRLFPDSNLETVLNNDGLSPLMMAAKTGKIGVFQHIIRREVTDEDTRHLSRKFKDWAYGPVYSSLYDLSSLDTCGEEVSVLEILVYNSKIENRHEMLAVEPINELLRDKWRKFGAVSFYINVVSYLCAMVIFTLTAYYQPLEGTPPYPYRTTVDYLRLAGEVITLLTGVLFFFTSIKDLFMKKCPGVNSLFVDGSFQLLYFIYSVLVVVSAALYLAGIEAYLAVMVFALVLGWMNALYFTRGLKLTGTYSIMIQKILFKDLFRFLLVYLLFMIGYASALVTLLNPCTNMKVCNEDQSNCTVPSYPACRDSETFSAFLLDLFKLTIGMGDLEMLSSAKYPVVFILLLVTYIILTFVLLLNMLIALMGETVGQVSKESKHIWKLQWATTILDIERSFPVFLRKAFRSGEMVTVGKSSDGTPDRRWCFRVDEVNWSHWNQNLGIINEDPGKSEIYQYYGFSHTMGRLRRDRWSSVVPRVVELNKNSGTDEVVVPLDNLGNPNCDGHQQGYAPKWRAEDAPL
T2 sequence (Q8NER1 whole entry): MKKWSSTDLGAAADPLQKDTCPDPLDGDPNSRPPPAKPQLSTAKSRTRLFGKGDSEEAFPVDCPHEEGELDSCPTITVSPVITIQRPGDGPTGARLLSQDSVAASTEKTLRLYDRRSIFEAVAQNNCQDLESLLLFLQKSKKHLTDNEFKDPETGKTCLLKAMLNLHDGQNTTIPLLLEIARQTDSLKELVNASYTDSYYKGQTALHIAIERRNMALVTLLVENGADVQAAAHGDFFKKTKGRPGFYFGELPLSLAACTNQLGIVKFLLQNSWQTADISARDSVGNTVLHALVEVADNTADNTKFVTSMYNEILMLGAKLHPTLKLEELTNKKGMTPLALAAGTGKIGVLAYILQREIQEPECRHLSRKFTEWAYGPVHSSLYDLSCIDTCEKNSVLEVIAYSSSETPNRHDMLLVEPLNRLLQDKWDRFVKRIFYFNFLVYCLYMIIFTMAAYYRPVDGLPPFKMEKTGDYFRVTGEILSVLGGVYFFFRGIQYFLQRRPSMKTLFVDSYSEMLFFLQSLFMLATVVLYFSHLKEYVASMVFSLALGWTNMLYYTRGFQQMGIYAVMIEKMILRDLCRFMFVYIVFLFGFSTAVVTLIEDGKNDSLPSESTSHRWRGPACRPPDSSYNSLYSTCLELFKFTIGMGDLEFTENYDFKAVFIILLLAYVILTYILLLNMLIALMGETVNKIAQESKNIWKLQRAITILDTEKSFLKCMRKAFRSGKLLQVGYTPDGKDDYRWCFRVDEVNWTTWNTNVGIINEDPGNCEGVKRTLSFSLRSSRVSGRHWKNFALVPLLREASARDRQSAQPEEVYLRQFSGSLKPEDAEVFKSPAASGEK

Structure (SMILES): CC1(C)CCC[C@]2(C)[C@@H](CC(=O)Nc3ccccc3)[C@](C)(O)CC[C@@H]12 [Compound 1, 2-((1R,2R,4aS,8aS)-2-Hydroxy-2,5,5,8a-tetramethyldecahydronaphthalen-1-yl)-N-phenylacetamide]
- IC50 (rTRPV4): > 100 µM
- Efficacy % (rTRPV4): <10%
- Efficacy % (hTRPV1): 33.6 ± 0.8%
- IC50 (hTRPV1): > 100 µM

Structure (SMILES): CC1(C)CCC[C@]2(C)[C@@H](CC(=O)Nc3cc(F)ccc3F)[C@](C)(O)CC[C@@H]12 [Compound 2, N-(2,5-difluorophenyl)-2-((1R,2R,4aS,8aS)-2-hydroxy-2,5,5,8a-tetramethyldecahydronaphthalen-1-yl)acetamide]
- IC50 (rTRPV4): > 100 µM
- Efficacy % (rTRPV4): <10%
- IC50 (hTRPV1): > 100 µM

Structure (SMILES): CC1(C)CCC[C@]2(C)[C@@H](CC(=O)Nc3ccccc3-n3cccc3)[C@](C)(O)CC[C@@H]12 [Compound 3, N-(2-(1H-pyrrol-1-yl)phenyl)-2-((1R,2R,4aS,8aS)-2-hydroxy-2,5,5,8a-tetramethyldecahydronaphthalen-1-yl)acetamide]
- activity on rTRPV4 in words (rTRPV4): good rTRPV4 agonist
- EC50 (rTRPV4; [1]): 1.1 ± 1 µM
- IC50 (rTRPV4): 6 ± 0.1 µM
- Efficacy % (rTRPV4): 14.6 ± 1.5%
- EC50 (hTRPV1): 4.7 ± 0.4 µM
- Efficacy % (hTRPV1): 32.0 ± 1.2%
- IC50 (hTRPV1): > 100 µM

Structure (SMILES): CC1(C)CCC[C@]2(C)[C@@H](CC(=O)NCc3ccccc3)[C@](C)(O)CC[C@@H]12 [Compound 4, N-benzyl-2-((1R,2R,4aS,8aS)-2-hydroxy-2,5,5,8a-tetramethyldecahydronaphthalen-1-yl)acetamide]
- IC50 (rTRPV4): 32 ± 0.8 µM
- Efficacy % (rTRPV4): <10%
- Efficacy % (hTRPV1): 36.8 ± 0.2%

Structure (SMILES): CC1(C)CCC[C@]2(C)[C@@H](CC(=O)NCc3ccc(Cl)cc3)[C@](C)(O)CC[C@@H]12 [Compound 5, N-(4-chlorobenzyl)-2-((1R,2R,4aS,8aS)-2-hydroxy-2,5,5,8a-tetramethyldecahydronaphthalen-1-yl)acetamide]
- IC50 (rTRPV4): 7.7 ± 0.3 µM
- Efficacy % (rTRPV4): <10%
- IC50 (hTRPV1): > 100 µM

Structure (SMILES): CC1(C)CCC[C@]2(C)[C@@H](CC(=O)NCc3ccc(F)cc3)[C@](C)(O)CC[C@@H]12 [Compound 7, N-(4-fluorobenzyl)-2-((1R,2R,4aS,8aS)-2-hydroxy-2,5,5,8a-tetramethyldecahydronaphthalen-1-yl)acetamide]
- EC50 (rTRPV4; [1]): 13.4 ± 2.6 µM
- IC50 (rTRPV4): 16.9 ± 0.8 µM
- Efficacy % (rTRPV4): 15.8 ± 0.8%
- EC50 (hTRPV1): 9.9 ± 0.1 µM
- Efficacy % (hTRPV1): 24.5± 0.2%
- IC50 (hTRPV1): > 50 µM
- melting point: 135 to 136 °C

Structure (SMILES): COc1ccc(CNC(=O)C[C@@H]2[C@@]3(C)CCCC(C)(C)[C@@H]3CC[C@@]2(C)O)cc1 [Compound 8, 2-((1R,2R,4aS,8aS)-2-hydroxy-2,5,5,8a-tetramethyldecahydronaphthalen-1-yl)-N-(4-methoxybenzyl)acetamide]
- IC50 (rTRPV4): 29.7 ± 0.7 µM
- Efficacy % (rTRPV4): <10%
- Efficacy % (hTRPV1): 19.7 ± 1.1%
- IC50 (hTRPV1): > 100 µM

Structure (SMILES): COc1cccc(CNC(=O)C[C@@H]2[C@@]3(C)CCCC(C)(C)[C@@H]3CC[C@@]2(C)O)c1 [Compound 9, 2-((1R,2R,4aS,8aS)-2-hydroxy-2,5,5,8a-tetramethyldecahydronaphthalen-1-yl)-N-(3 methoxybenzyl)acetamide]
- IC50 (rTRPV4): 18.1 ± 0.2 µM
- Efficacy % (rTRPV4): <10%
- IC50 (hTRPV1): > 100 µM

Structure (SMILES): CC1(C)CCC[C@]2(C)[C@@H](CC(=O)NCCc3ccccc3)[C@](C)(O)CC[C@@H]12 [Compound 10, 2-((1R,2R,4aS,8aS)-2-hydroxy-2,5,5,8a-tetramethyldecahydronaphthalen-1-yl)-N-phenethylacetamide]
- IC50 (rTRPV4): 15.6 ± 0.3 µM
- Efficacy % (rTRPV4): <10%

Structure (SMILES): CC1(C)CCC[C@]2(C)[C@@H](CC(=O)NCCc3ccc(Cl)cc3)[C@](C)(O)CC[C@@H]12 [Compound 11, N-(4-chlorophenethyl)-2-((1R,2R,4aS,8aS)-2-hydroxy-2,5,5,8a-tetramethyldecahydronaphthalen-1-yl)acetamide]
- IC50 (rTRPV4): 7 ± 0.1 µM
- Efficacy % (rTRPV4): <10%
- IC50 (hTRPV1): > 100 µM

Structure (SMILES): CC1(C)CCC[C@]2(C)[C@@H](CC(=O)NCCc3ccc(F)cc3)[C@](C)(O)CC[C@@H]12 [Compound 12, N-(4-fluorophenethyl)-2-((1R,2R,4aS,8aS)-2-hydroxy-2,5,5,8a-tetramethyldecahydronaphthalen-1-yl)acetamide]
- IC50 (rTRPV4): 11.4 ± 0.1 µM
- Efficacy % (rTRPV4): <10%
- IC50 (hTRPV1): > 100 µM

Structure (SMILES): CC1(C)CCC[C@]2(C)[C@@H](CC(=O)NCCc3cccc(F)c3)[C@](C)(O)CC[C@@H]12 [Compound 13, N-(3-fluorophenethyl)-2-((1R,2R,4aS,8aS)-2-hydroxy-2,5,5,8a-tetramethyldecahydronaphthalen-1-yl)acetamide]
- IC50 (rTRPV4): 11.9 ± 0.4 µM
- Efficacy % (rTRPV4): <10%
- Efficacy % (hTRPV1): 20.8 ± 1.6%
- IC50 (hTRPV1): > 50 µM

Structure (SMILES): CC1(C)CCC[C@]2(C)[C@@H](CC(=O)NCc3ccco3)[C@](C)(O)CC[C@@H]12 [Compound 14, N-(furan-2-ylmethyl)-2-((1R,2R,4aS,8aS)-2-hydroxy-2,5,5,8a-tetramethyldecahydronaphthalen-1-yl)acetamide]
- activity on rTRPV4 in words (rTRPV4): very weak antagonist properties
- IC50 (rTRPV4): 53.5 ± 1.8 µM
- Efficacy % (rTRPV4): <10%
- Efficacy % (hTRPV1): 25.2 ± 2.0%
- IC50 (hTRPV1): > 100 µM

Structure (SMILES): CC1(C)CCC[C@]2(C)[C@@H](CC(=O)NCc3ccc(-c4ccccc4)cc3)[C@](C)(O)CC[C@@H]12 [Compound 15, N-((1,1′-biphenyl)-4-ylmethyl)-2-((1R,2R,4aS,8aS)-2-hydroxy-2,5,5,8a-tetramethyldecahydronaphthalen-1-yl)acetamide]
- activity on rTRPV4 in words (rTRPV4): completely devoid of activity
- IC50 (rTRPV4): > 100 µM
- Efficacy % (rTRPV4): <10%
- IC50 (hTRPV1): > 100 µM

Structure (SMILES): CC1(C)CCC[C@]2(C)[C@@H](CC(=O)NCCCn3ccnc3)[C@](C)(O)CC[C@@H]12 [Compound 16, N-(3-(1H-imidazol-1-yl)propyl)-2-((1R,2R,4aS,8aS)-2-hydroxy-2,5,5,8a-tetramethyldecahydronaphthalen-1-yl)acetamide]
- activity on rTRPV4 in words (rTRPV4): complete loss of activity
- IC50 (rTRPV4): > 100 µM
- Efficacy % (rTRPV4): <10%
- IC50 (hTRPV1): > 100 µM

Structure (SMILES): CC1(C)CCC[C@]2(C)[C@@H](CC(=O)OCc3ccc(Cl)c(Cl)c3)[C@](C)(O)CC[C@@H]12 [Compound 19, 3,4-dichlorobenzyl 2-((1R,2R,4aS,8aS)-2-hydroxy-2,5,5,8a-tetramethyldecahydronaphthalen-1-yl)acetate]
- activity on rTRPV4 in words (rTRPV4): completely devoid of activity
- IC50 (rTRPV4): > 100 µM
- Efficacy % (rTRPV4): <10%
- Efficacy % (hTRPV1): 17.5 ± 2.7%
- IC50 (hTRPV1): > 100 µM

Structure (SMILES): COC(=O)CC1C(C)(O)CCC2C(C)(C)CCCC21C (stereo not drawn) [Compound 20]
- activity on rTRPV4 in words (rTRPV4): inactive
- IC50 (rTRPV4): > 100 µM
- Efficacy % (rTRPV4): <10%
- activity on hTRPV1 in words (hTRPV1): inactive
- IC50 (hTRPV1): > 100 µM

Structure (SMILES): CC1(C)CCCC2(C)C1CCC(C)(O)C2CCO (stereo not drawn) [Compound 21]
- activity on rTRPV4 in words (rTRPV4): unable to modulate either channel; also recorded: inactive
- IC50 (rTRPV4): > 100 µM
- Efficacy % (rTRPV4): <10%
- activity on hTRPV1 in words (hTRPV1): unable to modulate either channel
- IC50 (hTRPV1): > 100 µM

Structure (SMILES): CC1(C)CCC[C@]2(C)[C@@H](CCOC(=O)c3ccc4c(c3)OCO4)[C@](C)(O)CC[C@@H]12 [Compound 22, 2-((1R,2R,4aS,8aS)-2-Hydroxy-2,5,5,8a-tetramethyldecahydronaphthalen-1-yl)ethyl Benzo[d][1,3]dioxole-5-carboxylate]
- Efficacy % (rTRPV4): <10%
- IC50 (hTRPV1): > 100 µM
- melting point: 155 to 156 °C

Structure (SMILES): CC1(C)CCC[C@]2(C)[C@@H](CCOC(=O)CCCc3cccs3)[C@](C)(O)CC[C@@H]12 [Compound 24, 2-((1R,2R,4aS,8aS)-2-hydroxy-2,5,5,8a-tetramethyldecahydronaphthalen-1-yl)ethyl 4-(thiophen-2-yl)butanoate]
- IC50 (rTRPV4): > 100 µM
- Efficacy % (rTRPV4): <10%
- IC50 (hTRPV1): > 100 µM

Structure (SMILES): CC1(C)CCC[C@]2(C)[C@@H](CCOCc3cccc(Cl)c3)[C@](C)(O)CC[C@@H]12 [Compound 25, (1R,2R,4aS,8aS)-1-(2-((3-Chlorobenzyl)oxy)ethyl)-2,5,5,8a-tetramethyldecahydronaphthalen-2-ol]
- activity on rTRPV4 in words (rTRPV4): inactive
- IC50 (rTRPV4): > 100 µM
- Efficacy % (rTRPV4): <10%
- activity on hTRPV1 in words (hTRPV1): inactive
- IC50 (hTRPV1): > 100 µM

Structure (SMILES): CC(C)C[C@H](NC(=O)c1cc2ccccc2s1)C(=O)N1CCN(C(=O)[C@H](CO)NS(=O)(=O)c2ccc(Cl)cc2Cl)CC1 [GSK1016790A, N-((1S)-1-{[4-((2S)-2-{[(2,4-dichlorophenyl)sulfonyl]amino} -3-hydroxypropanoyl)-1-piperazinyl]carbonyl}-3-methylbutyl)-1-benzothiophene-2-carboxamide, reference compound]
- EC50 (rTRPV4): 0.0035 µM

Structure (SMILES): CC1(C)CCC[C@]2(C)[C@H]3CC(=O)O[C@]3(C)CC[C@@H]12 [Scd, (+)-Sclareolide, reference compound]
- activity on rTRPV4 in words (rTRPV4): unable to modulate either channel; also recorded: inactive
- EC50 (rTRPV4; [1]): > 10 µM
- IC50 (rTRPV4): > 100 µM
- Efficacy % (rTRPV4): 11.3 ± 0.7%
- activity on hTRPV1 in words (hTRPV1): unable to modulate either channel
- Efficacy % (hTRPV1): 12.6 ± 0.5%
- IC50 (hTRPV1): > 100 µM
